The results in this text go back to US11739098B2 (BRISTOL-MYERS SQUIBB COMPANY, priority 2017, dated 2023).

What all share (format): cell-based
In one experiment the target is T1, human TLR9 (Homo sapiens, UniProt Q9NR96).
T1 construct: host or cells: HEK-Blue cells (HEK293-derived reporter line)
T1 sequence (Q9NR96 26-1032): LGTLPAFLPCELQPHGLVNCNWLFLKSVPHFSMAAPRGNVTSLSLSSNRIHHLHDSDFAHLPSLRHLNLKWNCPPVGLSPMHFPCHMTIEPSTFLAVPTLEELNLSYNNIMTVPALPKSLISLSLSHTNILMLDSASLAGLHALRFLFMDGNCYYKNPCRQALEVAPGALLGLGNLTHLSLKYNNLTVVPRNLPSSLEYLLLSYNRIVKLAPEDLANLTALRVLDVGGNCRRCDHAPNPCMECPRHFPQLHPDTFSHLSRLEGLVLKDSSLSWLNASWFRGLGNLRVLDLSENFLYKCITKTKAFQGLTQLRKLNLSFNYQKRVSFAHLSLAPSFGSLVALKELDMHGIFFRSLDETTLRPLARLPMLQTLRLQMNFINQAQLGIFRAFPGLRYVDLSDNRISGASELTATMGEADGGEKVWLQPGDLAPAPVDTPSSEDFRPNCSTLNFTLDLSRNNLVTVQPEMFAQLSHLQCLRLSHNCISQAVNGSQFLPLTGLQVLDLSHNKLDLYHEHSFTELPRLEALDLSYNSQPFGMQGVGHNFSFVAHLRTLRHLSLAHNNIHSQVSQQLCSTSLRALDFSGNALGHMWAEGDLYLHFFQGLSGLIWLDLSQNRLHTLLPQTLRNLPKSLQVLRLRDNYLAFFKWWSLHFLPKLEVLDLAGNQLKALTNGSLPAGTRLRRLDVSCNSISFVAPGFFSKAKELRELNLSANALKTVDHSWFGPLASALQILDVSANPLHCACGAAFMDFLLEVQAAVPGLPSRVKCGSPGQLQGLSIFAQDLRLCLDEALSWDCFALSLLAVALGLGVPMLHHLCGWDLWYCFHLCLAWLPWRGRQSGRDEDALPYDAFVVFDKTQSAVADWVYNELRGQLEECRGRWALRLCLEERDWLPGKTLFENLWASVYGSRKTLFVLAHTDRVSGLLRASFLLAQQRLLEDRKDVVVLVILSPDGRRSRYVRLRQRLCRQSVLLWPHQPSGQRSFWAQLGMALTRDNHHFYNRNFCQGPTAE
The experiment in a line: TLR9 inhibition reporter assay (HEK-Blue cells, SEAP reporter, ODN2006 stimulation). Conditions: HEK-Blue cells overexpressing human TLR9, SEAP reporter, ODN2006 5 nM. The essentials: (§1)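 Read-out is SEAP activity in HEK-Blue detection medium after 22 h at 37 °C, converted to percent inhibition against agonist-plus-DMSO and reference-inhibitor controls. Cells saw compound (0.05 nM–50 μM, 30 min, room temperature) before gardiquimod 7.5 μM, R848 15.9 μM or ODN2006 5 nM for TLR7, TLR8 and TLR9, respectively.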

Another experiment concerns the target T2, human TLR8 (Homo sapiens, UniProt Q9NR97).
T2 construct: host or cells: HEK-Blue cells (HEK293-derived reporter line)
T2 sequence (Q9NR97 27-1041): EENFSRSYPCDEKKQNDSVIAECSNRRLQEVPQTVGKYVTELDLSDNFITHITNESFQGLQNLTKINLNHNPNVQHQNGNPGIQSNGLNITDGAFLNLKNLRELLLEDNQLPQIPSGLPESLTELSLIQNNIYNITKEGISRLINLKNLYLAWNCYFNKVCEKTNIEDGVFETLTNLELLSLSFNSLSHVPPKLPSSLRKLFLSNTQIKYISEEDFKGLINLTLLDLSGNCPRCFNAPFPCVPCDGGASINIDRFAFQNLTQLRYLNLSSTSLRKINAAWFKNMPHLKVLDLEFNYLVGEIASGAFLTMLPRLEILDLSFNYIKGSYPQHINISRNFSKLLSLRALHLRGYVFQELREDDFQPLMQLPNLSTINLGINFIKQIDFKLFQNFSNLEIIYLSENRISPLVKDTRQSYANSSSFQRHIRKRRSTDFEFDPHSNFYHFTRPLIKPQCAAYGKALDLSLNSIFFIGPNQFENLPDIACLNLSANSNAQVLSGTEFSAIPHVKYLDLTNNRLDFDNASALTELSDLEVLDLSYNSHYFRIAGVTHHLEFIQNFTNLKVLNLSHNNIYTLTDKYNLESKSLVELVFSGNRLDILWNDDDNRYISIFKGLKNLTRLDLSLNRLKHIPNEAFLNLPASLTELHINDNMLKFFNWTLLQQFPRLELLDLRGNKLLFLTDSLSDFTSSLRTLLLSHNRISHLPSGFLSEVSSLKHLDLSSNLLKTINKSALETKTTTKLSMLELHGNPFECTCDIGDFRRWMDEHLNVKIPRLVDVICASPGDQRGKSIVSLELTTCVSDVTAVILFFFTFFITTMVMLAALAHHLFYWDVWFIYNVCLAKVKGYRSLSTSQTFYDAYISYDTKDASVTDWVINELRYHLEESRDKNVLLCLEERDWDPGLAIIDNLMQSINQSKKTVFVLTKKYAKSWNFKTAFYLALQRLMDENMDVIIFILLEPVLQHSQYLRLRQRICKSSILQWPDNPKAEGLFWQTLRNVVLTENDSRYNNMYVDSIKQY
The experiment is described as follows: TLR8 inhibition reporter assay (HEK-Blue cells, SEAP reporter, R848 stimulation). Conditions: HEK-Blue cells overexpressing human TLR8, SEAP reporter, R848 15.9 μM. The method, boiled down:
as §1

The target in another experiment is T3, human TLR7 (Homo sapiens, UniProt Q9NYK1).
T3 construct: host or cells: HEK-Blue cells (HEK293-derived reporter line)
T3 sequence (Q9NYK1 27-1049): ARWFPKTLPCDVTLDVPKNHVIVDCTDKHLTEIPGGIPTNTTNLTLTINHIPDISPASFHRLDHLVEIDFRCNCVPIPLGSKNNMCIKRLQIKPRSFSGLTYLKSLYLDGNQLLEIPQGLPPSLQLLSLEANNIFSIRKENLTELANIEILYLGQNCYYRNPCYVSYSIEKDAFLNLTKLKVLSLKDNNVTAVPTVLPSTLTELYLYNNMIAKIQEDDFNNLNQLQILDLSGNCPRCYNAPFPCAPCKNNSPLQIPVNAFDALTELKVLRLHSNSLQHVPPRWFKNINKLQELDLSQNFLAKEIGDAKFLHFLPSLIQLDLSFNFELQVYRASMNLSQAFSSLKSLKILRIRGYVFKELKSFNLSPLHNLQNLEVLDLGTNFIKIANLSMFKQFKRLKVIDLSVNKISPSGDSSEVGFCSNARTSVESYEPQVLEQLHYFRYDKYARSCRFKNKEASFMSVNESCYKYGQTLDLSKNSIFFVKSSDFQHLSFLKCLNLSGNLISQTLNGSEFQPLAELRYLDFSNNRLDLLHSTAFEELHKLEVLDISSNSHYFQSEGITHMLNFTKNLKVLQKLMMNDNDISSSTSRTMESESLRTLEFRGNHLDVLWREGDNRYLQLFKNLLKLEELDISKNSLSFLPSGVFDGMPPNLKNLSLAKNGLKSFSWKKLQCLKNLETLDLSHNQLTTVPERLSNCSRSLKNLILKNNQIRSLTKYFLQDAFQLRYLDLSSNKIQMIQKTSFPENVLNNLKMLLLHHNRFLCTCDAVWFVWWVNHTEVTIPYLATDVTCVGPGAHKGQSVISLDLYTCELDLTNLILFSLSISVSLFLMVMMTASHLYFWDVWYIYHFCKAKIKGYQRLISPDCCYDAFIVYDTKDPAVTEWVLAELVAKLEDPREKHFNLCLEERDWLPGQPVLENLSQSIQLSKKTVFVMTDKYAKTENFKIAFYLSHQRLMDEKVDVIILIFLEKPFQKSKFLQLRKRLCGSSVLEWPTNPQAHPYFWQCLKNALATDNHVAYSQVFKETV
The experiment in a line: TLR7 inhibition reporter assay (HEK-Blue cells, SEAP reporter, gardiquimod stimulation). Conditions: HEK-Blue cells overexpressing human TLR7, SEAP reporter, gardiquimod 7.5 μM. The method, boiled down:
as §1
Background: In a reporter assay the amount or activity of a reporter protein is the signal.

With `Cc1cc2cc(-c3[nH]c4ccc(C5CCN(C(=O)CN(C)C)CC5)cc4c3C(C)C)cc(C)n2n1` [Example 552, 2-(dimethylamino)-1-(4-(2-(2,7-dimethylpyrazolo[1,5-a]pyridin-5-yl)-3-isopropyl-1H-indol-5-yl)piperidin-1-yl)ethan-1-one], the IC50 (as a rule, the concentration that inhibits the measured activity by half) on human TLR9 is 100 to 1000 nM; at human TLR8 it was under 100 nM; against human TLR7 it was under 100 nM.

Take `CNCC(=O)N1CCC(c2ccc3[nH]c(-c4cc(OC)n5ncnc5c4)c(C(C)C)c3c2)CC1` [Example 553, 1-(4-(3-isopropyl-2-(5-methoxy-[1,2,4]triazolo[1,5-a]pyridin-7-yl)-1H-indol-5-yl)piperidin-1-yl)-2-(methylamino)ethan-1-one]: the IC50 was 100 to 1000 nM on human TLR9, under 100 nM against human TLR8 and under 100 nM on human TLR7.

For `CC(C)c1c(-c2cnc3ncnn3c2)[nH]c2ccc(C3CCN(C(=O)CN(C)C)CC3)cc12` [Example 554, 1-(4-(2-([1,2,4]triazolo[1,5-a]pyrimidin-6-yl)-3-isopropyl-1H-indol-5-yl)piperidin-1-yl)-2-(dimethylamino)ethan-1-one], the values for the IC50 at human TLR9, against human TLR8 and against human TLR7 were 1000 to 50000 nM, 100 to 1000 nM and under 100 nM, respectively.

With `CNCC(=O)N1CCC(c2ccc3[nH]c(-c4cnc5ncnn5c4)c(C(C)C)c3c2)CC1` [Example 555, 1-(4-(2-([1,2,4]triazolo [1,5-a]pyrimidin-6-yl)-3-isopropyl-1H-indol-5-yl)piperidin-1-yl)-2-(methylamino)ethan-1-one], the figures for the IC50 at human TLR9, on human TLR8 and against human TLR7 were 1000 to 50000 nM, 100 to 1000 nM and under 100 nM, respectively.

`CC(C)c1c(-c2ccc(Cl)c3[nH]ncc23)[nH]c2ccc(C3CCN(C(=O)CN(C)C)CC3)cc12` [Example 556, 1-(4-(2-(7-chloro-1H-indazol-4-yl)-3-isopropyl-1H-indol-5-yl)piperidin-1-yl)-2-(dimethylamino)ethan-1-one]: the IC50 on human TLR9 lay in the range of 1000 to 50000 nM; against human TLR8 it was 100 to 1000 nM; against human TLR7, 100 to 1000 nM.

Turning to `CNCC(=O)N1CCC(c2ccc3[nH]c(-c4cc(C)c5nccn5c4)c(C(C)C)c3c2)CC1` [Example 557, 1-(4-(3-isopropyl-2-(8-methylimidazo[1,2-a]pyridin-6-yl)-1H-indol-5-yl)piperidin-1-yl)-2-(methylamino)ethan-1-one], the IC50 was 100 to 1000 nM on human TLR9, under 100 nM at human TLR8 and under 100 nM on human TLR7.

For the compound `COc1cc(-c2[nH]c3ccc(C4CCN(C(=O)CN(C)C)CC4)cc3c2C(C)C)cn2ccnc12` [Example 558, 2-(dimethylamino)-1-(4-(3-isopropyl-2-(8-methoxyimidazo[1,2-a]pyridin-6-yl)-1H-indol-5-yl)piperidin-1-yl) ethan-1-one], the IC50 is 100 to 1000 nM against human TLR9, under 100 nM against human TLR8 and under 100 nM at human TLR7.

Take `CNCC(=O)N1CCC(c2ccc3[nH]c(-c4cc(OC)c5nccn5c4)c(C(C)C)c3c2)CC1` [Example 559, 1-(4-(3-isopropyl-2-(8-methoxyimidazo[1,2-a]pyridin-6-yl)-1H-indol-5-yl)piperidin-1-yl)-2-(methylamino)ethan-1-one]: the results for the IC50 against human TLR9, against human TLR8 and at human TLR7 were 100 to 1000 nM, under 100 nM and under 100 nM, respectively.

For the compound `CNCC(=O)N1CCC(c2ccc3[nH]c(-c4cc(C)c5ncccc5c4)c(C(C)C)c3c2)CC1` [Example 560, 1-(4-(3-isopropyl-2-(8-methylquinolin-6-yl)-1H-indol-5-yl)piperidin-1-yl)-2-(methylamino)ethan-1-one], the IC50 is 1000 to 50000 nM against human TLR9, under 100 nM on human TLR8 and under 100 nM on human TLR7.

As to `CC(C)c1c(-c2cnc3[nH]ncc3c2)[nH]c2ccc(C3CCN(C(=O)CN(C)C)CC3)cc12` [Example 562, 2-(dimethylamino)-1-(4-(3-isopropyl-2-(1H-pyrazolo[3,4-b]pyridin-5-yl)-1H-indol-5-yl)piperidin-1-yl)ethan-1-one], the IC50 against human TLR9 is 1000 to 50000 nM; against human TLR8 it was under 100 nM; on human TLR7, under 100 nM.

`CC(C)c1c(-c2cnc3[nH]ccc3c2)[nH]c2ccc(C3CCN(C(=O)CN(C)C)CC3)cc12` [Example 563, 2-(dimethylamino)-1-(4-(3-isopropyl-2-(1H-pyrrolo[2,3-b]pyridin-5-yl)-1H-indol-5-yl)piperidin-1-yl)ethan-1-one]: the half-maximal inhibitory concentration (IC50) was 1000 to 50000 nM against human TLR9, 1000 to 50000 nM against human TLR8 and 100 to 1000 nM against human TLR7.

With `CC(C)c1c(-c2ccnc3[nH]ccc23)[nH]c2ccc(C3CCN(C(=O)CN(C)C)CC3)cc12` [Example 564, 2-(dimethylamino)-1-(4-(3-isopropyl-2-(1H-pyrrolo[2,3-b]pyridin-4-yl)-1H-indol-5-yl)piperidin-1-yl)ethan-1-one], the IC50 is 1000 to 50000 nM against human TLR9, under 100 nM on human TLR8 and under 100 nM against human TLR7.
